Measured values taken from article PMC11484933, “Active state structures of a bistable visual opsin bound to G proteins” (Nature Communications, 2024).

How the values were obtained:
[1] = biological target: T1, jsGiq (Gαiqβ1γ2) (Homo sapiens, UniProt P63096, A31R/D193S/L194I/D337C/T340K/V342T/I344L/K345Q/D350E/G352N/F354V); assay: GTPase-Glo luminescence assay; format: biochemical; settings: 2 uM G protein, 2 uM GTP stock mixed 1:1; 20 C; with and without JSR1-ATR6.11
T1 construct: gene GNAI1; heterotrimer from High Five insect cells, His tag removed with HRV 3C

[2] = biological target: T2, hGi (Gαi1β1γ1 heterotrimer) (Homo sapiens, UniProt P63096); assay: GTPase-Glo luminescence assay; format: biochemical; settings: 2 uM G protein, 2 uM GTP stock mixed 1:1; 20 C; with and without JSR1-ATR6.11
T2 construct: gene GNAI1; human Galphai1 with N-terminal TEV-cleavable deca-His tag from E. coli BL21(DE3); Gbeta1gamma1 from transducin of bovine retinae
T2 sequence (P63096 2-354): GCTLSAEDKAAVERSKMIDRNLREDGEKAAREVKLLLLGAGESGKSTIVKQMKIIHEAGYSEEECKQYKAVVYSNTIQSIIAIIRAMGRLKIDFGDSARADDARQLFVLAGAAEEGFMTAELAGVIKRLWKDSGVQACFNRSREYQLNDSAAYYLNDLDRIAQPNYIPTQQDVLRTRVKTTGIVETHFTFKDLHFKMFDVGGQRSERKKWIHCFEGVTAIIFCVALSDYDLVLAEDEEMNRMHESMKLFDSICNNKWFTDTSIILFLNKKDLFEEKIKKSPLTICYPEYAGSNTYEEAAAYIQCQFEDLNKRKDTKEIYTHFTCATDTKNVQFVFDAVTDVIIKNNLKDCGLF
T2 sequence (P62871 2-340 partner): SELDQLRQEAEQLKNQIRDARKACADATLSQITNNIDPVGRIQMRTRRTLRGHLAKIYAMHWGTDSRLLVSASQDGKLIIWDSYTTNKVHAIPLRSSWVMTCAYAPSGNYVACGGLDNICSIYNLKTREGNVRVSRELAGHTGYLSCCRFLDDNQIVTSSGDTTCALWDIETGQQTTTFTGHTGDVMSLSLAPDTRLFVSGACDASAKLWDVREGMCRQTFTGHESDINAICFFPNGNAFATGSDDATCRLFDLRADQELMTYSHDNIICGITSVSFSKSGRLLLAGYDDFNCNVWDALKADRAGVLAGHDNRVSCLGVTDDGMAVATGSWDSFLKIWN
T2 sequence (P02698 2-71 partner): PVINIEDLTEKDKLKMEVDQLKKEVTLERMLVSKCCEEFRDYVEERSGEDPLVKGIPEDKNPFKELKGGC

T1 sequence (P63096 2-354 A31R/D193S/L194I/D337C/T340K/V342T/I344L/K345Q/D350E/G352N/F354V): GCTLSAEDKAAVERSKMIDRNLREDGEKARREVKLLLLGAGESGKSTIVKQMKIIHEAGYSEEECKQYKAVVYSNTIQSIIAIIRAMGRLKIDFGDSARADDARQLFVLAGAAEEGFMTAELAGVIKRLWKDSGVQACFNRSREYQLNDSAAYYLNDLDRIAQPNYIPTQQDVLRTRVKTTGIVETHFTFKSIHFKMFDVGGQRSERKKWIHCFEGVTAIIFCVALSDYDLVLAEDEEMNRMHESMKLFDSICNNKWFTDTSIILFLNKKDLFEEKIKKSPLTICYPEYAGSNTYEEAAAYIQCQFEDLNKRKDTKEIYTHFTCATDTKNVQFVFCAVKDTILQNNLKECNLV
T1 sequence (P62873 2-340 partner): as the sequence (P62871 2-340 partner) above
T1 sequence (P59768 2-68 partner): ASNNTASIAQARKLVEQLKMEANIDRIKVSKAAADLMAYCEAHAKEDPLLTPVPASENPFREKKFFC

Nc1nc2c(ncn2[C@@H]2O[C@H](COP(=O)(O)OP(=O)(O)OP(=O)(O)O)[C@@H](O)[C@H]2O)c(=O)[nH]1 [GTP]
GTP hydrolysis % [1]: An in vitro activity assay showed that this chimera retains intrinsic GTPase activity | GTP hydrolysis % [2]: GTPase-Glo assay showing GTP depletion for hGi and jsGiq samples
